Measured values as given in US10730870B2, “Compounds and methods for the enhanced degradation of targeted proteins” (Arvinas, Inc., priority 2015, dated 2020).
pIC50: −log10 of the molar value.

Biological target: VHL (Homo sapiens (Human), UniProt P40337)
Experiment: VHL fluorescence polarization (FP) competition assay
Type: binding

Row | SMILES | pIC50 (0.25% in DMSO) | pIC50 (1% in DMSO) | pIC50 (10% in DMSO) | VHL FP Assay IC50 (1% in DMSO) | VHL FP Assay IC50 (10% in DMSO)
1 | Cc1ncsc1-c1ccc(CNC(=O)[C@@H]2C[C@@H](O)CN2C(=O)[C@@H](NC(=O)CCC2CCCCC2)C(C)(C)C)cc1 [Example 20, (2S,4R)-1-((S)-2-(3-cyclohexylpropanamido)-3,3-dimethylbutanoyl)-4-hydroxy-N-(4-(4-methylthiazol-5-yl)benzyl)pyrrolidine-2-carboxamide] | 5.30 | 5.98 | 5.94 | – | –
2 | Cc1ncsc1-c1ccc(CNC(=O)[C@H]2C[C@H](O)CN2C(=O)[C@@H](CSSC[C@H](NC(=O)CCC(C)C)C(=O)N2C[C@H](O)C[C@H]2C(=O)NCc2ccc(-c3scnc3C)cc2)NC(=O)CCC(C)C)cc1 [Example 60, (2S,4R)-4-hydroxy-1-((R)-3-(((S)-3-((2R,4S)-4-hydroxy-2-(4-(4-methylthiazol-5-yl)benzylcarbamoyl)pyrrolidin-1-yl)-2-(4-methylpentanamido)-3-oxopropyl)disulfanyl)-2-(4-methylpentanamido)propanoyl)-N-(4-(4-methylthiazol-5-yl)benzyl)pyrrolidine-2-carboxamide] | – | 5.84 | 6.53 | – | –
3 | CC(C)[C@@H](C(=O)N1C[C@H](O)C[C@H]1C(=O)NCc1ccc(-c2ccccc2)cc1)N1Cc2ccccc2C1=O [Example 40, (2S,4R)—N-(biphenyl-4-ylmethyl)-4-hydroxy-1-((S)-3-methyl-2-(1-oxoisoindolin-2-yl)butanoyl)pyrrolidine-2-carboxamide] | 4.76 | 5.63 | 5.41 | – | –
4 | Cc1ncsc1-c1ccc(CNC(=O)[C@@H]2C[C@@H](O)CN2C(=O)[C@H](C(C)C)N2Cc3ccc(C#N)cc3C2=O)cc1 [Example 17, (2S,4R)-1-((S)-2-(6-cyano-1-oxoisoindolin-2-yl)-3-methylbutanoyl)-4-hydroxy-N-(4-(4-methylthiazol-5-yl)benzyl)pyrrolidine-2-carboxamide] | 5.66 | 6.50 | 5.97 | – | –
5 | COc1ccc2c(c1)CN([C@H](C(=O)N1C[C@H](O)C[C@H]1C(=O)NCc1ccc(-c3scnc3C)cc1)C(C)C)C2=O [Example 72, (2S,4R)-4-hydroxy-1-((S)-2-(5-methoxy-1-oxoisoindolin-2-yl)-3-methylbutanoyl)-N-(4-(4-methylthiazol-5-yl)benzyl)pyrrolidine-2-carboxamide] | – | 6.07 | 5.99 | – | –
6 | CC(C)[C@@H](C(=O)N1C[C@H](O)C[C@H]1C(=O)NCc1ccc(C2CCOCC2)cc1)N1Cc2ccccc2C1=O [Example 118, (2S,4R)-4-hydroxy-1-((S)-3-methyl-2-(1-oxoisoindolin-2-yl)butanoyl)-N-(4-(tetrahydro-2H-pyran-4-yl)benzyl)pyrrolidine-2-carboxamide] | – | 3.48 | – | – | –
7 | CC(C)[C@@H](C(=O)N1C[C@H](O)C[C@H]1C(=O)NCc1ccc(-c2scnc2Br)cc1)N1Cc2ccccc2C1=O [Example 1, (2S,4R)—N-(4-(4-bromothiazol-5-yl)benzyl)-4-hydroxy-1-((S)-3-methyl-2-(1-oxoisoindolin-2-yl)butanoyl)pyrrolidine-2-carboxamide] | – | 5.62 | 5.64 | – | –
8 | Cc1ncsc1-c1ccc(CNC(=O)[C@@H]2C[C@@H](O)CN2C(=O)[C@@H](NC(=O)C(C)(C)C)C(C)(C)C)cc1 [Example 14, (2S,4R)-1-((S)-3,3-dimethyl-2-pivalamidobutanoyl)-4-hydroxy-N-(4-(4-methylthiazol-5-yl)benzyl)pyrrolidine-2-carboxamide] | 5.15 | 5.33 | 4.88 | – | –
9 | CC[C@H](C)[C@H](NCCc1ccccc1)C(=O)N1C[C@H](O)C[C@H]1C(=O)NCc1ccc(-c2scnc2C)cc1 [Example 104, (2S,4R)-4-hydroxy-1-((2S,3S)-3-methyl-2-(phenethylamino)pentanoyl)-N-(4-(4-methylthiazol-5-yl)benzyl)pyrrolidine-2-carboxamide] | – | < 5.00 | – | – | –
10 | Cc1ncsc1-c1ccc(CNC(=O)[C@@H]2C[C@@H](O)CN2C(=O)C(N)C(F)(F)F)cc1 (stereo partly drawn) [Example 89, (2S,4R)-1-(2-amino-3,3,3-trifluoropropanoyl)-4-hydroxy-N-(4-(4-methylthiazol-5-yl)benzyl)pyrrolidine-2-carboxamide] | – | 4.22 | 3.86 | – | –
11 | CO/N=C(/NCc1ccc(-c2scnc2C)cc1)[C@@H]1C[C@@H](O)CN1C(=O)[C@H](C(C)C)N1Cc2ccccc2C1=O [Example 120, (2S,4R,E)-4-hydroxy-N′-methoxy-1-((S)-3-methyl-2-(1-oxoisoindolin-2-yl)butanoyl)-N-(4-(4-methylthiazol-5-yl)benzyl)pyrrolidine-2-carboximidamide] | – | 4.81 | – | – | –
12 | CC(=O)NC(C(=O)N1C[C@H](O)C[C@H]1C(=O)NCc1ccc(-c2scnc2C)cc1)C(F)(F)F (stereo partly drawn) [Example 90, (2S,4R)-1-(2-acetamido-3,3,3-trifluoropropanoyl)-4-hydroxy-N-(4-(4-methylthiazol-5-yl)benzyl)pyrrolidine-2-carboxamide] | – | 4.34 | 4.32 | – | –
13 | Cc1ncsc1-c1ccc(CNC(=O)C2(C)C[C@@H](O)CN2C(=O)[C@H](C(C)C)N2Cc3ccccc3C2=O)cc1 (some centres unmarked) [Example 132] | – | 5.77 | – | – | –
14 | Cc1ncsc1-c1ccc(CNC(=O)[C@@H]2C[C@@H](O)CN2C(=O)[C@@H](NC(=O)c2cccnc2)C(C)(C)C)cc1 [Example 84, N—((S)-1-((2S,4R)-4-hydroxy-2-(4-(4-methylthiazol-5-yl)benzylcarbamoyl)pyrrolidin-1-yl)-3,3-dimethyl-1-oxobutan-2-yl)nicotinamide] | – | 5.91 | 5.84 | – | –
15 | Cc1ncsc1-c1ccc(CNC(=O)[C@@H]2C[C@@H](O)CN2C(=O)[C@H](C(C)C)N2Cc3cccc(C#N)c3C2=O)cc1 [Example 47, (2S,4R)-1-((S)-2-(7-cyano-1-oxoisoindolin-2-yl)-3-methylbutanoyl)-4-hydroxy-N-(4-(4-methylthiazol-5-yl)benzyl)pyrrolidine-2-carboxamide] | – | 6.75 | 6.47 | – | –
16 | Cc1ncsc1-c1ccc(CNC(=O)[C@@H]2C[C@@H](O)CN2C(=O)C2(N3Cc4ccccc4C3=O)CCC2)cc1 [Example 55, (2S,4R)-4-hydroxy-N-(4-(4-methylthiazol-5-yl)benzyl)-1-(1-(1-oxoisoindolin-2-yl)cyclobutanecarbonyl)pyrrolidine-2-carboxamide] | – | 3.94 | 3.34 | – | –
17 | Cc1ncsc1-c1ccc(CNC(=O)[C@@H]2C[C@@H](O)CN2C(=O)[C@H](C(C)C)N2Cc3cccc(Br)c3C2=O)cc1 [Example 42, (2S,4R)-1-((S)-2-(7-bromo-1-oxoisoindolin-2-yl)-3-methylbutanoyl)-4-hydroxy-N-(4-(4-methylthiazol-5-yl)benzyl)pyrrolidine-2-carboxamide] | – | 5.31 | 4.80 | – | –
18 | Cc1ncsc1-c1ccc(CNC(=O)[C@@H]2C[C@@H](O)CN2C(=O)C2(N3Cc4ccccc4C3=O)CCCCC2)cc1 [Example 54, (2S,4R)-4-hydroxy-N-(4-(4-methylthiazol-5-yl)benzyl)-1-(1-(1-oxoisoindolin-2-yl)cyclohexanecarbonyl)pyrrolidine-2-carboxamide] | – | 6.08 | 5.92 | – | –
19 | CCC1(C(=O)NCc2ccc(-c3scnc3C)cc2)C[C@@H](O)CN1C(=O)c1cccc(OC)c1 (stereo partly drawn) [Example 67, (4R)-2-ethyl-4-hydroxy-1-(3-methoxybenzoyl)-N-(4-(4-methylthiazol-5-yl)benzyl)pyrrolidine-2-carboxamide] | – | – | – | Not Active | Not Active
